Laboratory results taken from the NIST ThermoML archive (doi:10.1016/j.jct.2013.04.017).
Numbers after ± are expanded uncertainties.

Columns and labels:
[1] = 313.15 K; 101 kPa; Liquid; Sing-around technique in a fixed-path interferometer
[2] = mn = molality of the nth substance listed, in mol/kg; settings: 313.15 K; 101 kPa; Liquid; fixed-path interferometer; m2 = 0

`O` [water] showed a speed of sound [1] of 1528.9 ± 1.1 m/s.

`O` [water] + O=C(O)CC(O)(CC(=O)O)C(=O)O showed a speed of sound [2] of 1528.9 ± 1.1 m/s.
